Experimental data from article PMC8308672, “Bioactive Compounds from Euphorbia usambarica Pax. with HIV-1 Latency Reversal Activity” (Pharmaceuticals, 2021).

Assays:
latent HIV-1 = test: HIV-1 latency reversal activity, GFP expression of J-Lat 10.6 cells; type: cell-based; settings: for HIV-1 latency reversal activity of isolated compounds (in words): J-lat 10.6 cells, GFP expression, tested at 1, 10 and 100 μM; for EC50: Human immunodeficiency virus 1, J-Lat 10.6, read-out: latency EC50, J-Lat 10.6 cells, HIV-1 reactivation dose-response
Procedure: (§1) Figure 1 HIV-1 latency reversal activity of methanolic crude extract (EU), partitioned n-hexane (EU-H), dichloromethane (EU-C), ethyl acetate (EU-E), and water-soluble residue (EU-W) phases. (A) dose-response experiments conducted with Jurkat T cells that were latently infected with full-length HIV-1 reporter construct (J-Lat 10.6 cells), HIV-1 reactivation quantified as % of positive control (PMA); (B) cell viability of each sample at 10, 50, 100, 500, and 1000 μg/mL.
(§2) Jurkat cells with a full-length integrated HIV-1 provirus that have been modified to contain a GFP coding region in place of the env gene (J-lat 10.6 cells) were used for HIV-1 anti-latency activity, cytotoxicity, and cellular activation testing. All 31 compounds were tested at 1, 10, and 100 μM. […] These compounds were further tested at additional concentrations to determine dose response and toxicity curves (Figure 5A–F). Cell viability for all isolated compounds is presented in Figure S106 in the supplementary material.
The HIV-1-infected Jurkat T cell line (J-Lat 10.6) was obtained in January 2019 from the NIH/ATCC HIV-1 Reagent Program (www.hivreagentprogram.org) and cultured in RPMI-based media supplemented with 10% fetal calf serum, 1% penicillin, and 1% streptomycin.
(§3) After in vitro culture, J-lat cells were washed with phosphate-buffered saline (1× PBS) prior to staining with 0.1 µL fixable viability dye Live/Dead Aqua (Cat L34957, www.thermofisher.com) per 10^5 cells for 30 min at 4 °C. Simultaneously, J-lat cells were also stained with antibodies against CD69 conjugated to an APC fluorophore (APC anti-human CD69 antibody, biolegend.com). Cells were then washed and re-suspended in 1× PBS prior to flow cytometry acquisition evaluating for cellular viability, green fluorescent protein (GFP) expression, and CD69 expression. Flow cytometry was performed with a BD FACSCelesta or FACSCanoto flow cytometer with FACSDiva acquisition software (Becton Dickinson, Mountain View, CA) prior to analysis with FlowJo (TreeStar Inc., Ashland, OR, USA).
Isolated compounds were resuspended in dimethyl sulfoxide (DMSO; Sigma-Aldrich, Burlington, USA), at a concentration of 10 mM, and diluted with PBS, and tested with J-lat 10.6 cells at concentrations of 100, 10, and 1 μM. J-lat 10.6 cells were tested with compounds at a concentration of 2.5 × 10^5 cells/mL. We performed a minimum of three replicates of each condition for all experiments. Negative controls contained 1% DMSO to account for any effect of DMSO in the highest dilution of compounds.

CD69 = CD69 expression on J-lat cells (flow cytometry); type: cell-based, human
Procedure: (§4) In order to determine whether our active compounds were acting through PKC, we evaluated the latency reversal activity of each of these compounds in the presence and absence of a pan-PKC inhibitor, Gö6983 (Figure 7).
as §3

PKC = test: Latency reversal activity in the presence and absence of pan-PKC inhibitor Gö6983; type: cell-based, human; settings: presence versus absence of pan-PKC inhibitor Gö6983
From the text: as §4
Figure 7 Effect of PKC inhibition on HIV-1 reactivation of compounds 13–14, 21, 26, and 27.

latent HIV = tested on: latent HIV; parameters: method as in PMID 30031972; settings: read-out: EC50, reactivation of latent HIV; cited from earlier work
in vitro = type: cell-based, human; settings: human, J-Lat 10.6 cells; read-out: cellular CC50
Procedure: as §1, §2, §3
(§5) Isolated compounds were resuspended in dimethyl sulfoxide (DMSO; Sigma-Aldrich, Burlington, USA), at a concentration of 10 mM, and diluted with PBS, and tested with J-lat 10.6 cells at concentrations of 100, 10, and 1 μM. J-lat 10.6 cells were tested with compounds at a concentration of 2.5 × 10^5 cells/mL. […]

J-Lat 10.6 cells = test: in vitro; type: cell-based, human; settings: read-out: cellular CC50
Procedure: as §1, §2, §3, §5

HIV-1 = settings: read-out: EC50, anti-HIV-1 activity; cited from earlier work
HIV-1 latency = tested on: HIV-1 latency; parameters: method as in PMID 30944245; settings: through the PKC pathway; cited from earlier work

Molecule: COc1cc(C2OCC3C(c4cc(OC)c(O)c(OC)c4)OCC23)cc(OC)c1O (single isomer, unassigned; (+)) [Compound 26, (+)-syringaresinol]
- HIV-1 latency reversal activity of isolated compounds (in words) (latent HIV-1): showed HIV-1 latency reversal activity
- CD69 expression (hallmark of PKC activation) (in words) (CD69): did not increase CD69 expression
- latency reversal activity when PKC was inhibited (in words) (PKC): did not show a significant reduction

Molecule: CC1=C[C@]23C(=O)[C@@H](C=C(CO)[C@@H](O)[C@]2(O)[C@H]1OC(=O)c1ccc2ccccc2c1)[C@H]1[C@@H](C[C@H]3C)C1(C)C [3-(2-naphthoyl)ingenol]
- EC50 (latent HIV): 0.0024 µM

Molecule: C/C=C(/C)C(=O)O[C@H]1C(C)=C[C@]23C(=O)[C@@H](C=C(CO)[C@@H](O)[C@]12O)[C@H]1[C@@H](C[C@H]3C)C1(C)C [3-angeloylingenol]
- EC50 (latent HIV): 0.0042 µM

Molecule: CC(=O)O[C@@]12[C@H](OC(=O)c3ccccc3)[C@@H](C)[C@]3(O)[C@@H]4C=C(C)C(=O)C4=CC(C)=C[C@H]3[C@@H]1C2(C)C [Compound 12, 12-O-benzoyl-13-acetoxy-4,20-dideoxyphorbol-4-ene]
- HIV-1 latency reversal activity of isolated compounds (in words) (latent HIV-1): showed HIV-1 latency reversal activity
- latency reversal activity when PKC was inhibited (in words) (PKC): reduced efficacy

Molecule: CC(=O)O[C@@]12[C@H](OC(=O)c3ccccc3)[C@@H](C)[C@]3(O)[C@@H]4C=C(C)C(=O)[C@@H]4CC(CO)=C[C@H]3[C@@H]1C2(C)C [Compound 13, crotignoid K]
- EC50 (latent HIV-1): 3.75 µM
- HIV-1 latency reversal activity of isolated compounds (in words) (latent HIV-1): showed HIV-1 latency reversal activity
- CC50 at 24 h (in vitro): 40 µM
- latency reversal activity when PKC was inhibited (in words) (PKC): reduced efficacy

Molecule: CC(=O)O[C@@]12[C@H](OC(=O)c3ccccc3)[C@@H](C)[C@]3(O)[C@@H]4C=C(C)C(=O)[C@H]4CC(CO)=C[C@H]3[C@@H]1C2(C)C [Compound 14, 4β-Crotignoid K]
- EC50 (latent HIV-1): 0.015 µM
- fold difference in selectivity index (CC50/EC50), 14 versus 13 (latent HIV-1; J-Lat 10.6 cells, compared to crotignoid K (13)): ~ 1000 fold
- HIV-1 latency reversal activity of isolated compounds (in words) (latent HIV-1): showed HIV-1 latency reversal activity
- CC50 (J-Lat 10.6 cells): > 160 µM
- CC50 at 24 h (in vitro): 160 µM
- latency reversal activity when PKC was inhibited (in words) (PKC): reduced efficacy

Molecule: CC1=C2C=C3CC[C@@H]4C(C)(C)C(=O)CC[C@@]4(C)[C@@H]3C[C@H]2OC1=O [Compound 21, helioscopinolide E]
- HIV-1 latency reversal activity of isolated compounds (in words) (latent HIV-1): showed HIV-1 latency reversal activity
- latency reversal activity when PKC was inhibited (in words) (PKC): reduced efficacy

Molecule: COc1cc([C@H]2Oc3c(OC)cc(/C=C/COC(C)=O)cc3[C@@H]2COC(C)=O)ccc1O [Compound 27, dimeric coniferyl acetate]
- HIV-1 latency reversal activity of isolated compounds (in words) (latent HIV-1): showed HIV-1 latency reversal activity
- CD69 expression (hallmark of PKC activation) (in words) (CD69): did not increase CD69 expression
- latency reversal activity when PKC was inhibited (in words) (PKC): did not show a significant reduction

Molecule: CC1(C)OC[C@@]2(C[C@]34CC[C@H]2C[C@H]3[C@]2(C)CC[C@H](O)C(C)(C)[C@H]2CC4)O1 [euphorneroid D]
- EC50 (HIV-1): 34 µM

Molecule: CC1=C[C@]23C(=O)[C@@H](C=C(CO)[C@@H](O)[C@]2(O)[C@H]1O)[C@H]1[C@@H](C[C@H]3C)C1(C)C [ingenol]
- reactivation of HIV-1 latency (in words) (HIV-1 latency): significant effect in the reactivation of HIV-1 latency

Molecule: ent-3-oxoatisan-16α,17-acetonide
- EC50 (HIV-1): 24 µM
